Tests used:
MUTZ-3 cells = assay: PLS score plot of proteomic response, fourth study; assay type: cell-based, human; conditions: FIG. 3, ANOVA filtered protein list
Experimental: In the fourth study (40-002—8) Mutz-3 cells were incubated with 2 contact sensitizer (120 μM cinnamic aldehyde, 4 μM DNCB), 1 respiratory sensitizer (150 μM TMA), 1 irritant (200 μM SDS) and 1 controls (untreated).
A preferred method for classification of chemicals is employing partial least squares regression analysis (PLS). PLS discriminant analysis identifies the most important classifiers from the list of interest. A model was built using the response variables (y) highlighted in red and the ANOVA filtered proteins as predictors (x). The first PLS components (x-axis) was plotted against the second PLS component (y-axis) and separated the biomarkers having a role in classifying the three experimental groups “control”, “irritant” and sensitizer”.
In the score plot each point represents one 1 sample. Based on the ANOVA filtered protein list samples a good separation between control, sensitizer and irritant treated samples was achieved.

Myeloperoxidase (MPO) = assay: Myeloperoxidase ELISA in supernatant of Mutz-3 cells; assay type: cell-based, human; conditions: FIG. 4
Text: (§1) As an alternative approach to find predictive markers for sensitizing potential we explored the potential of cell culture supernatants as a source of markers for chemical safety by adopting a more targeted approach using commercially available immunoassays to measure the levels of three known inflammatory markers. The three proteins to be measured by ELISA were selected on the basis of a review of literature references to secreted inflammatory protein response to chemical sensitizer. Cells were cultured as described in Example 1 and the spent medium removed for direct analysis by ELISA. All kits were used in accordance with manufacturer's instructions.
MPO is a peroxidase enzyme which is stored in lysosomes and released during inflammation Myeloperoxidase was measured by ELISA (Assay-Designs) (FIG. 4).

[1] = test system: Calprotectin (S100A8/S100A9); assay: Calprotectin immunoassay in supernatant of Mutz-3 cells; assay type: cell-based, human; conditions: FIG. 5
Text: as §1
Calprotectin is heterodimer of S100A8/S100A9 was measured in supernatant of Mutz-3 cells by a commercially available immunoassay (Immundiagnostik AG, Bensheim, Germany) (FIG. 5). Calprotectin is actively secreted by phagocytes in response to stress and binds to Toll-like receptor 4 (TLR4). Toll-like receptors play an important role in the innate immune system and activation of TLR4 by calprotectin further amplifies inflammation (Ehrchen et al. 2009). TLR4 and interleukin 12 double knock-out mice, show a marked decrease of DC-sensitization by a broad range of different sensitizers including 2,4,6-trinitro-1-chlorobenzene (TNCB), oxazolone, and fluorescein isothiocyanate (Martin et al. 2008). […]

dendritic cell lines = conditions: Mitjans et al. 2009; cited from earlier work

SMILES	relative distance of treated samples from control in PLS score plot (MUTZ-3 cells)	MPO release into supernatant of Mutz-3 cells (Myeloperoxidase (MPO))	S100A8/S100A9 (calprotectin) levels in supernatant of Mutz-3 cells [1]	response of the IL-8 assay (dendritic cell lines)
O=[N+]([O-])c1ccc(Cl)c([N+](=O)[O-])c1 [DNCB, 1-chloro-2,4-dinitrobenzene]	greatest relative distance from the control	activates an inflammatory pathway involving release of the peroxidase enzyme MPO	modulated	–
O=C(O)c1ccc2c(c1)C(=O)OC2=O [TMA, Trimellitic anhydride]	smaller distance to control sample	does not activate this pathway	–	fails to respond

From patent US20140220566A1, “MATERIALS AND METHODS FOR DETERMINING SENSITIVITY POTENTIAL OF COMPOUNDS” (ELECTROPHORETICS LIMITED, priority 2011, published 2014)
